# Columns and labels:
# Assay in all cases: radiometric filter-binding kinase assay, Kinase HotSpot
# Details in all cases: compound 0.5 µM; ATP 10 µM
# MAP2K2 (human) = MAP2K2 (human) (UniProt P36507)
# PNCK (human) = PNCK (human) (UniProt Q6P2M8)
# STK11 (human) = STK11 (human) (UniProt Q15831)
# MAP3K14 (human) = MAP3K14 (human) (UniProt Q99558)
# CSNK1G3 (human) = CSNK1G3 (human) (UniProt Q9Y6M4)
# CSF1R (human) = CSF1R (human) (UniProt P07333)
# ULK2 (human) = ULK2 (human) (UniProt Q8IYT8)
# MST1R (human) = MST1R (human) (UniProt Q04912)
# TGFBR1 (human) = TGFBR1 (human) (UniProt P36897)
# DSTYK (human) = DSTYK (human) (UniProt Q6XUX3)
# ZAP70 (human) = ZAP70 (human) (UniProt P43403)
# NEK7 (human) = NEK7 (human) (UniProt Q8TDX7)
# DYRK4 (human) = DYRK4 (human) (UniProt Q9NR20)
# TAOK2 (human) = TAOK2 (human) (UniProt Q9UL54)
# PAK4 (human) = PAK4 (human) (UniProt O96013)
# MAP3K8 (human) = MAP3K8 (human) (UniProt P41279)
# EPHB2 (human) = EPHB2 (human) (UniProt P29323)
# ROCK1 (human) = ROCK1 (human) (UniProt Q13464)
# HIPK2 (human) = HIPK2 (human) (UniProt Q9H2X6)
# JAK3 JH1 JH2 (human) = JAK3 JH1 JH2 (human) (UniProt P52333)
# MST4 (human) = MST4 (human) (UniProt Q9P289)
# FER (human) = FER (human) (UniProt P16591)
# LTK (human) = LTK (human) (UniProt P29376)
# KDR (human) = KDR (human) (UniProt P35968)
# TEK (human) = TEK (human) (UniProt Q02763)
# PRKX (human) = PRKX (human) (UniProt P51817)
# RPS6KB2 (human) = RPS6KB2 (human) (UniProt Q9UBS0)
# ERBB4 (human) = ERBB4 (human) (UniProt Q15303)
# MAPK9 (human) = MAPK9 (human) (UniProt P45984)
# CLK4 (human) = CLK4 (human) (UniProt Q9HAZ1)
# CLK2 (human) = CLK2 (human) (UniProt P49760)
# CLK3 (human) = CLK3 (human) (UniProt P49761)
# PHKG2 (human) = PHKG2 (human) (UniProt P15735)
# RAF1 (human) = RAF1 (human) (UniProt P04049)
# ALK (human) = ALK (human) (UniProt Q9UM73)
# IRAK4 (human) = IRAK4 (human) (UniProt Q9NWZ3)
# PAK6 (human) = PAK6 (human) (UniProt Q9NQU5)
# MARK4 (human) = MARK4 (human) (UniProt Q96L34)
# CDK5 CDK5R1 p25 (human) = CDK5 CDK5R1 p25 (human) (UniProt Q00535+Q15078)
# MAPK10 (human) = MAPK10 (human) (UniProt P53779)
# CAMK1 (human) = CAMK1 (human) (UniProt Q14012)
# NUAK1 (human) = NUAK1 (human) (UniProt O60285)
# JAK3 JH1 JH2 (human), sequence (P52333 whole entry, looked up): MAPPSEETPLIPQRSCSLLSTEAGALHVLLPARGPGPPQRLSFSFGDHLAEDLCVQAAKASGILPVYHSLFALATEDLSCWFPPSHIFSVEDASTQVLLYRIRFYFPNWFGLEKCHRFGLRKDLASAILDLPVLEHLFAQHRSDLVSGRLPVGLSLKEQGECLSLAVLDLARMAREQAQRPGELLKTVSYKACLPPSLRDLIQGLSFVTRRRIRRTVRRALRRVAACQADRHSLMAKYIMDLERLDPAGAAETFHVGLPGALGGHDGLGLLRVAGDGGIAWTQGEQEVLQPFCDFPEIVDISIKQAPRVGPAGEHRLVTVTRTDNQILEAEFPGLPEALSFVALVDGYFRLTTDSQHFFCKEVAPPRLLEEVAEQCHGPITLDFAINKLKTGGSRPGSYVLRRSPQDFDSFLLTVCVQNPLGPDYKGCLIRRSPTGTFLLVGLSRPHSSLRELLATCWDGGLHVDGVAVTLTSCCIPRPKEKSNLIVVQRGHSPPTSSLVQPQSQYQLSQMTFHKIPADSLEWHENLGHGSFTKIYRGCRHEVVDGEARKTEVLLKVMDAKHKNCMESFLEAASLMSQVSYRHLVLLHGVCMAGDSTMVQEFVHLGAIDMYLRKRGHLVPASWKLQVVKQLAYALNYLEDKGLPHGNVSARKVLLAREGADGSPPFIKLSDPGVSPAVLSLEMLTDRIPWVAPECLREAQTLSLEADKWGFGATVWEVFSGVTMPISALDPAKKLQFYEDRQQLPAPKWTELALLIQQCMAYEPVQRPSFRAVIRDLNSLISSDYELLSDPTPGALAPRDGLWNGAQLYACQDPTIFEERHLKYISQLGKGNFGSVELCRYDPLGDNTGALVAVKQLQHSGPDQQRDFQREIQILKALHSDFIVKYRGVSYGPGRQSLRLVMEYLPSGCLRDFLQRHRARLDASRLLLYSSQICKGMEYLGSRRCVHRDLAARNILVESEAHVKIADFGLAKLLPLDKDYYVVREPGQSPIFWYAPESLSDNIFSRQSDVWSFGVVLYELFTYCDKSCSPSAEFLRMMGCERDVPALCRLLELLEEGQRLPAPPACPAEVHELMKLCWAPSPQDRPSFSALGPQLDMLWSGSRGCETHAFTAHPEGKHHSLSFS
# ERBB4 (human), sequence (Q15303 whole entry, looked up): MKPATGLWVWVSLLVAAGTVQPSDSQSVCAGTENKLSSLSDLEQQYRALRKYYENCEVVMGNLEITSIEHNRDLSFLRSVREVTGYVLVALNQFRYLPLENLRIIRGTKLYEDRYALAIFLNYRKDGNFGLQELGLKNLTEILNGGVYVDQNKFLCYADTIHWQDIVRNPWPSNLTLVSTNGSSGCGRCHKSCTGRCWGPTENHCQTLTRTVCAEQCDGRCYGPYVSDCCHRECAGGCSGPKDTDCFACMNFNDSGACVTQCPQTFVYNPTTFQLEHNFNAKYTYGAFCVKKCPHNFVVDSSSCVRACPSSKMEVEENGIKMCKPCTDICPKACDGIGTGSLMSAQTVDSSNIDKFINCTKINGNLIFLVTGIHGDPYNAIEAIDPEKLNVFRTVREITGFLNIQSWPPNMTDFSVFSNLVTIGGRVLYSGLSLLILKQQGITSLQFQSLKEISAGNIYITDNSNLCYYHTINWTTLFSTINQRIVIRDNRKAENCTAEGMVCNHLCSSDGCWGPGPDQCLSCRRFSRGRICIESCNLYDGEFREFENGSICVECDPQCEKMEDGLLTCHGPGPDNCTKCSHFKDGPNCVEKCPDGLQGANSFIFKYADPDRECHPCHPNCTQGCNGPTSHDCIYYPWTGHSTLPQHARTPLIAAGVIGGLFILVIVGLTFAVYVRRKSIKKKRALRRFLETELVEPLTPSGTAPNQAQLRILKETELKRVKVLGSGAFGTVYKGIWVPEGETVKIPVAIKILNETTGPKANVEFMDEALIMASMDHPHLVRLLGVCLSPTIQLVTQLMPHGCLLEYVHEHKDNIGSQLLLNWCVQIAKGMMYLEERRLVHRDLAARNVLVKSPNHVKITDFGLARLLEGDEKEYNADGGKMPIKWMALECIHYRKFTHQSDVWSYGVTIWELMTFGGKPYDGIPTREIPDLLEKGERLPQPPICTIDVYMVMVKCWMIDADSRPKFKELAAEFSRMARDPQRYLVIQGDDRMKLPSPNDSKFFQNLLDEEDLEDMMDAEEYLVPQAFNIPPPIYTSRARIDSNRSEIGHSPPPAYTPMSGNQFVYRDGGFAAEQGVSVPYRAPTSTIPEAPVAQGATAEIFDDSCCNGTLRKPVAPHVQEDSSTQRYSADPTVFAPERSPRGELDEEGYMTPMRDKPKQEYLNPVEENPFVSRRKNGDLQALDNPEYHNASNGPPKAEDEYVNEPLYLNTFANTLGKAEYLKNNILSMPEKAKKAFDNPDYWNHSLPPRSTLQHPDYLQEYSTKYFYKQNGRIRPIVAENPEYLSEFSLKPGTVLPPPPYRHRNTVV
# TAOK2 (human), sequence (Q9UL54 whole entry, looked up): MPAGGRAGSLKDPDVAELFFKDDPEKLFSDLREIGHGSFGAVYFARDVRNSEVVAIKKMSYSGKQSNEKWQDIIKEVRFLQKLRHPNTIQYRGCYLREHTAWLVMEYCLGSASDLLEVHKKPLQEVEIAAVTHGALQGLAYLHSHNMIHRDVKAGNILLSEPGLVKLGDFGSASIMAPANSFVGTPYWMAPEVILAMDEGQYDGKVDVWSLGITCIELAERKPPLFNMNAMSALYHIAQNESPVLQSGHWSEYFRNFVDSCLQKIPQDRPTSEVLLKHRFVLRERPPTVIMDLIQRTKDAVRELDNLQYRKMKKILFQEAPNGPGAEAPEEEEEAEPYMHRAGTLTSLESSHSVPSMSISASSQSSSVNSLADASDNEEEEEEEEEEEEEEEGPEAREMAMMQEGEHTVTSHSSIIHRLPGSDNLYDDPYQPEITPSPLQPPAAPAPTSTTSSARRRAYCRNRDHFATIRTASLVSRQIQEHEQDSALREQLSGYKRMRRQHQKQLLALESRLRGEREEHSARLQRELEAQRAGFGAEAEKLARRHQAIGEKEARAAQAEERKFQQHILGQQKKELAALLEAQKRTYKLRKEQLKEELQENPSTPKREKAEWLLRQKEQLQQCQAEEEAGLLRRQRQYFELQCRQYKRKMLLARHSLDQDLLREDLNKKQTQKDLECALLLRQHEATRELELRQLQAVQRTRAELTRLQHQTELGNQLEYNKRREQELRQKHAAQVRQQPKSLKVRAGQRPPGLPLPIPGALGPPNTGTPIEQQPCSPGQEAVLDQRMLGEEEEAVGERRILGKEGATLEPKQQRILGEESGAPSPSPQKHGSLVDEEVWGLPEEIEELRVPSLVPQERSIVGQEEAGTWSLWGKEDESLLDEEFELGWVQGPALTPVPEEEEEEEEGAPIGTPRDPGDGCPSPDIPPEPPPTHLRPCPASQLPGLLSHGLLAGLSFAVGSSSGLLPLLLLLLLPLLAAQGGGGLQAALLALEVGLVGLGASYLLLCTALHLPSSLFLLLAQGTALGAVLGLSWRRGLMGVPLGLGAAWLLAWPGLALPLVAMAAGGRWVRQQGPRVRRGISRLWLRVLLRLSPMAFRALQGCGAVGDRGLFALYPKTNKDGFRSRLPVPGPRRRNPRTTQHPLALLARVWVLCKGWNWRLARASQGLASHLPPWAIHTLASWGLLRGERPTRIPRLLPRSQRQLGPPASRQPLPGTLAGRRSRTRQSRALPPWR
# STK11 (human), sequence (Q15831 whole entry, looked up): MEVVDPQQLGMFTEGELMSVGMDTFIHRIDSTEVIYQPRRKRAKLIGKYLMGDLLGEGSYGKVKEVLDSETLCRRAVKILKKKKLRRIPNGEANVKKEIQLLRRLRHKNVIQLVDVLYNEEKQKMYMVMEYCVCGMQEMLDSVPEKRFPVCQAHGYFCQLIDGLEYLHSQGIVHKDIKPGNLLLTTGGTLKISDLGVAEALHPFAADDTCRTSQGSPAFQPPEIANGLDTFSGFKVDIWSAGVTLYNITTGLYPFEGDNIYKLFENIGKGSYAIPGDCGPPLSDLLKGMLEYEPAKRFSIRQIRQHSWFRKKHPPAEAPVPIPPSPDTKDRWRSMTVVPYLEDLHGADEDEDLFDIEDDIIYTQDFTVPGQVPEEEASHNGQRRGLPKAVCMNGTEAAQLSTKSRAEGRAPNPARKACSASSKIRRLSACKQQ
# CDK5 CDK5R1 p25 (human), sequence (Q00535 whole entry, looked up): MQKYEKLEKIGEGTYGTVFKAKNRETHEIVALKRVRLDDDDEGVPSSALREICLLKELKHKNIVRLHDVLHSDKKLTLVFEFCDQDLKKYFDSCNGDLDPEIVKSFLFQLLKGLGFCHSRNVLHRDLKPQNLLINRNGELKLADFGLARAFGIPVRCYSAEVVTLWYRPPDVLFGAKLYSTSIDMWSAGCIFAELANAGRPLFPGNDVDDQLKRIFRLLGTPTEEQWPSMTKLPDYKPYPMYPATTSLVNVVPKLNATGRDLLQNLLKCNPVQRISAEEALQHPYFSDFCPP
# CDK5 CDK5R1 p25 (human), sequence (Q15078 whole entry, looked up): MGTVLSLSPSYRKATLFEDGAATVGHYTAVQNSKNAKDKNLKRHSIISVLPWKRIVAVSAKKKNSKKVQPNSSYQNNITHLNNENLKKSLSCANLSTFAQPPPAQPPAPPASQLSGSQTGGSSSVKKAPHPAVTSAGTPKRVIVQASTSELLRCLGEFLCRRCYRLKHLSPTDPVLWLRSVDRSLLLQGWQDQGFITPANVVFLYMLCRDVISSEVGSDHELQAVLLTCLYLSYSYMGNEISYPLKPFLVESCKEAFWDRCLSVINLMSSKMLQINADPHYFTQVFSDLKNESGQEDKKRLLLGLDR
# CAMK1 (human), sequence (Q14012 whole entry, looked up): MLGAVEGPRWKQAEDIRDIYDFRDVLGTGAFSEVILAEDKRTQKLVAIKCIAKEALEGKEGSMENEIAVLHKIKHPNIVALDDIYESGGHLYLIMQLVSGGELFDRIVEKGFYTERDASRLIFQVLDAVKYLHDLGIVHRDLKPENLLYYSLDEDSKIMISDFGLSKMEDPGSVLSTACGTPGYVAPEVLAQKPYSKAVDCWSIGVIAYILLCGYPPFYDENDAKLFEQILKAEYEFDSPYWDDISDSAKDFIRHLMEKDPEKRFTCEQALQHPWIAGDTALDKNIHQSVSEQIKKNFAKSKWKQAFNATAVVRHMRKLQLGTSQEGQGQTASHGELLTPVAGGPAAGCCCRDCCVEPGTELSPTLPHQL
structure (smiles),measurement,setting,value
Cn1nc2c3c(cccc31)C(=O)c1ccccc1-2,residual activity,MAP2K2 (human),102%
same,residual activity,PNCK (human),101%
same,residual activity,STK11 (human),87.7%
same,residual activity,MAP3K14 (human),107%
same,residual activity,CSNK1G3 (human),81.4%
same,residual activity,CSF1R (human),97%
same,residual activity,ULK2 (human),109%
same,residual activity,MST1R (human),96.7%
same,residual activity,TGFBR1 (human),93.7%
same,residual activity,DSTYK (human),101%
same,residual activity,ZAP70 (human),95.1%
same,residual activity,NEK7 (human),93.1%
same,residual activity,DYRK4 (human),91.2%
same,residual activity,TAOK2 (human),104%
same,residual activity,PAK4 (human),90.4%
same,residual activity,MAP3K8 (human),94.3%
same,residual activity,EPHB2 (human),104%
same,residual activity,ROCK1 (human),98.4%
same,residual activity,HIPK2 (human),105%
same,residual activity,JAK3 JH1 JH2 (human),107%
same,residual activity,MST4 (human),108%
same,residual activity,FER (human),99.2%
same,residual activity,LTK (human),86.7%
same,residual activity,KDR (human),101%
same,residual activity,TEK (human),98.2%
same,residual activity,PRKX (human),101%
same,residual activity,RPS6KB2 (human),94.7%
same,residual activity,ERBB4 (human),94.3%
same,residual activity,MAPK9 (human),85.2%
same,residual activity,CLK4 (human),69.8%
same,residual activity,CLK2 (human),94.5%
same,residual activity,CLK3 (human),98.5%
same,residual activity,PHKG2 (human),95.4%
same,residual activity,RAF1 (human),87%
same,residual activity,ALK (human),87.4%
same,residual activity,IRAK4 (human),97.3%
same,residual activity,PAK6 (human),98.6%
same,residual activity,MARK4 (human),91.1%
same,residual activity,CDK5 CDK5R1 p25 (human),92.2%
same,residual activity,MAPK10 (human),97.3%
same,residual activity,CAMK1 (human),104%
same,residual activity,NUAK1 (human),46.2%
CC(C)c1nn(-c2c(Cl)cccc2Cl)c2nc(Cc3ccc(OCCO)cc3)nc(O)c12,residual activity,MAP2K2 (human),98.5%
same,residual activity,PNCK (human),94.3%
same,residual activity,STK11 (human),47.7%
same,residual activity,MAP3K14 (human),97.3%
same,residual activity,CSNK1G3 (human),95.7%
same,residual activity,CSF1R (human),94.6%
same,residual activity,ULK2 (human),86.6%
same,residual activity,MST1R (human),97.5%
same,residual activity,TGFBR1 (human),98%
same,residual activity,DSTYK (human),93.1%
same,residual activity,ZAP70 (human),103%
same,residual activity,NEK7 (human),94%
same,residual activity,DYRK4 (human),96.7%
same,residual activity,TAOK2 (human),93.3%
same,residual activity,PAK4 (human),106%
same,residual activity,MAP3K8 (human),96.4%
same,residual activity,EPHB2 (human),92.5%
same,residual activity,ROCK1 (human),101%
same,residual activity,HIPK2 (human),104%
same,residual activity,JAK3 JH1 JH2 (human),103%
same,residual activity,MST4 (human),46.8%
same,residual activity,FER (human),89.4%
same,residual activity,LTK (human),87.4%
same,residual activity,KDR (human),105%
same,residual activity,TEK (human),100%
same,residual activity,PRKX (human),96.3%
same,residual activity,RPS6KB2 (human),106%
same,residual activity,ERBB4 (human),101%
same,residual activity,MAPK9 (human),96.5%
same,residual activity,CLK4 (human),81.2%
same,residual activity,CLK2 (human),44%
same,residual activity,CLK3 (human),91.3%
same,residual activity,PHKG2 (human),102%
same,residual activity,RAF1 (human),95.8%
same,residual activity,ALK (human),103%
same,residual activity,IRAK4 (human),112%
same,residual activity,PAK6 (human),102%
same,residual activity,MARK4 (human),99.5%
same,residual activity,CDK5 CDK5R1 p25 (human),2.54%
same,residual activity,MAPK10 (human),109%
same,residual activity,CAMK1 (human),85.1%
same,residual activity,NUAK1 (human),96.9%

# From the kinase profiling compilation of Christmann-Franck et al. (2016)
